The term IC50 denotes the concentration at which inhibition is half-maximal.

In this assay the target is recombinant mTOR (Homo sapiens, UniProt P42345). Briefly: In vitro mTOR kinase assay, Test (a)(i) (AlphaScreen). It counts as biochemical. The conditions noted are these: enzyme assay; values may represent the average of two or more measurements; read-out: Test (a)(i) IC50. The procedure: (a)(i) In Vitro mTOR Kinase Assay
Sequence of recombinant mTOR (P42345 1362-2549): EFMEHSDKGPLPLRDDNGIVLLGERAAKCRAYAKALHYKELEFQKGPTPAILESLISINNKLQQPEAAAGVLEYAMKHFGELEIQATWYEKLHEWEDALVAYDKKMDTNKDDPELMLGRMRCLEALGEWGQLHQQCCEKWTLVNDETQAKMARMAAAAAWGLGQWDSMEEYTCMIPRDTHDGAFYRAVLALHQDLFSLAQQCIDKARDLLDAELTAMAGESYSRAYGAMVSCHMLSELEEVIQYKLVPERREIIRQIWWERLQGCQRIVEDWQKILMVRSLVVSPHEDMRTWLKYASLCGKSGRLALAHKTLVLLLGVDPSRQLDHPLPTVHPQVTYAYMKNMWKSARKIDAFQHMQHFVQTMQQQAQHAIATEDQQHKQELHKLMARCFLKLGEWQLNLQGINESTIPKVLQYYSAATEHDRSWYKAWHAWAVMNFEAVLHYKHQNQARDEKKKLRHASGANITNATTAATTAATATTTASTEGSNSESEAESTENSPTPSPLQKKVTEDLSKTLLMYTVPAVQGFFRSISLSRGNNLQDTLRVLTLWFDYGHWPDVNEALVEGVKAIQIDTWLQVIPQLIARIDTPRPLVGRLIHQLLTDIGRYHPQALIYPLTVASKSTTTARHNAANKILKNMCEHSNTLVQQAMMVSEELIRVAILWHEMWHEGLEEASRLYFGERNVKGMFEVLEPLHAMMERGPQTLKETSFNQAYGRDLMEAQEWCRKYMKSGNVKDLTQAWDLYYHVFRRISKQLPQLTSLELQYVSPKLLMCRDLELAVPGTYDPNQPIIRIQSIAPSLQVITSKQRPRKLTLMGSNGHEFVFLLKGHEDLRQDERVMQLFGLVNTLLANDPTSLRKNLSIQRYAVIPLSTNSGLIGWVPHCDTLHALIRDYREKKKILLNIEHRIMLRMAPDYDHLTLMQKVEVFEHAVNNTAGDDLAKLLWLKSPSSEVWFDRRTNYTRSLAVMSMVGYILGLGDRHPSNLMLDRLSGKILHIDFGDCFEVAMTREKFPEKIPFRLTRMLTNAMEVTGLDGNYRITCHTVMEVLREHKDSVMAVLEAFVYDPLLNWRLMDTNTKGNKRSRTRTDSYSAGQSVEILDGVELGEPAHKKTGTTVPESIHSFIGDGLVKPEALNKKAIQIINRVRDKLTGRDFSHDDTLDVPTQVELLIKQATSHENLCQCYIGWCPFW
The HEK293 FLAG-tagged mTOR (1362-2549) stable cell line was routinely maintained at 37° C. with 5% CO2 up to a confluency of 70-90% in Dulbecco's modified Eagle's growth medium (DMEM; Invitrogen Limited, Paisley, UK Catalogue No. 41966-029) containing 10% heat-inactivated foetal calf serum (FCS; Sigma, Poole, Dorset, UK, Catalogue No. F0392), 1% L-glutamine (Gibco, Catalogue No. 25030-024) and 2 mg/ml Geneticin (G418 sulfate; Invitrogen Limited, UK Catalogue No. 10131-027). Following expression in the mammalian HEK293 cell line, expressed protein was purified using the FLAG epitope tag using standard purification techniques.
A 30 μl mixture of recombinant purified mTOR enzyme, 1 μM biotinylated peptide substrate (Biotin-Ahx-[…]NH2; Bachem UK Ltd), ATP (20 μM) and a buffer solution [comprising Tris-HCl pH7.4 buffer (50 mM), EGTA (0.1 mM), bovine serum albumin (0.5 mg/mL), DTT (1.25 mM) and manganese chloride (10 mM)] was agitated at room temperature for 90 minutes.
These assay solutions were incubated for 2 hours at room temperature.
Phosphorylated biotinylated peptide is formed in situ as a result of mTOR mediated phosphorylation. The phosphorylated biotinylated peptide that is associated with AlphaScreen Streptavidin donor beads forms a complex with the p70 S6 Kinase (T389) 1A5 Monoclonal Antibody that is associated with Alphascreen Protein A acceptor beads. […] Accordingly, the presence of mTOR kinase activity results in an assay signal. In the presence of an mTOR kinase inhibitor, signal strength is reduced.
As to `C[C@H]1COCCN1c1cc(CS(C)(=O)=O)nc(Nc2cc[nH]n2)n1` [Example 30, 4-[(3S)-3-Methylmorpholin-4-yl]-6-(methylsulfonylmethyl)-N-(1H-pyrazol-3-yl)pyrimidin-2-amine], the IC50 turned out to be 897 nM. As for `COc1ccc(C(=O)Nc2nc(N3CCOC[C@@H]3C)cc(N3CCOC[C@@H]3C)n2)cc1C(F)(F)F` [Example 4, N-[4,6-Bis[(3S)-3-methylmorpholin-4-yl]pyrimidin-2-yl]-4-methoxy-3-(trifluoromethyl)benzamide], the IC50 amounted to 442 nM. Take `C[C@@H]1COCCN1c1cc(CS(C)(=O)=O)nc(-c2ccc3[nH]ccc3c2)n1` [Example 25, 5-[4-[(3R)-3-methylmorpholin-4-yl]-6-(methylsulfonylmethyl)pyrimidin-2-yl]-1H-indole]: the IC50 came out at 385 nM. Then `C[C@H]1COCCN1c1cc(C(C)(C)S(C)(=O)=O)nc(-c2ccc3[nH]cnc3c2)n1` [Example 39, 5-[4-[(3S)-3-Methylmorpholin-4-yl]-6-(2-methylsulfonylpropan-2-yl)pyrimidin-2-yl]-1H-benzoimidazole], with 192 nM; and `C[C@H]1COCCN1c1cc(CS(=O)(=O)c2ccccc2)nc(-c2ccc3[nH]cnc3c2)n1` [Example 48, 5-[4-(benzenesulfonylmethyl)-6-[(3S)-3-methylmorpholin-4-yl]pyrimidin-2-yl]-1H-benzoimidazole], with 108 nM. Then `COc1cccc(C(=O)Nc2nc(N3CCOC[C@@H]3C)cc(N3CCOC[C@@H]3C)n2)c1` [Example 5, N-[4,6-Bis[(3S)-3-methylmorpholin-4-yl]pyrimidin-2-yl]-3-methoxy-benzamide], with 364 nM; and `C[C@H]1COCCN1c1cc(NC(=O)c2ccc(NC(=O)Nc3ccccc3)cc2)nc(N2CCOC[C@@H]2C)n1` [Example 17, N-[2,6-Bis[(3S)-3-methylmorpholin-4-yl]pyrimidin-4-yl]-4-(phenylcarbamoylamino)benzamide], with 9390 nM; and `CC(=O)Nc1cc(C(=O)Nc2nc(N3CCOC[C@@H]3C)cc(N3CCOC[C@@H]3C)n2)ccn1` [Example 15, 2-Acetamido-N-[4,6-bis[(3S)-3-methylmorpholin-4-yl]pyrimidin-2-yl]pyridine-4-carboxamide], with 9550 nM.

On to `C[C@H]1COCCN1c1cc(C(C)(C)S(C)(=O)=O)nc(-c2cnc3[nH]ccc3c2)n1` [Example 40, 3-[4-[(3S)-3-Methylmorpholin-4-yl]-6-(2-methylsulfonylpropan-2-yl)pyrimidin-2-yl]-5,7-diazabicyclo[4.3.0]nona-1,3,5,8-tetraene], for which the IC50 was determined as 588 nM.

On to `C[C@H]1COCCN1c1cc(CS(C)(=O)=O)nc(-c2cnc(-c3cn[nH]c3)s2)n1` [Example 34, 4-[(3S)-3-Methylmorpholin-4-yl]-6-(methylsulfonylmethyl)-2-[2-(1H-pyrazol-4-yl)-1,3-thiazol-5-yl]pyrimidine], for which the IC50 was found to be 573 nM.

On to `COc1ccccc1C(=O)Nc1cc(N2CCOC[C@@H]2C)nc(N2CCOC[C@@H]2C)n1` [Example 9, N-[2,6-Bis[(3S)-3-methylmorpholin-4-yl]pyrimidin-4-yl]-2-methoxy-benzamide], for which the IC50 is 894 nM. Take `C[C@H]1COCCN1c1cc(CS(C)(=O)=O)nc(-c2ccc3[nH]c(C(N)=O)cc3c2)n1` [Example 37, 5-[4-[(3S)-3-Methylmorpholin-4-yl]-6-(methylsulfonylmethyl)pyrimidin-2-yl]-1H-indole-2-carboxamide]: the IC50 was 336 nM. As to `C[C@H]1COCCN1c1cc(CS(C)(=O)=O)nc(-c2ccc3c(C(N)=O)c[nH]c3c2)n1` [Example 36, 6-[4-[(3S)-3-Methylmorpholin-4-yl]-6-(methylsulfonylmethyl)pyrimidin-2-yl]-1H-indole-3-carboxamide], the concentration for half-maximal inhibition (IC50) was determined as 1640 nM.

For the compound `COc1cc(C(=O)Nc2nc(N3CCOC[C@@H]3C)cc(N3CCOC[C@@H]3C)n2)ccn1` [Example 12, N-[4,6-Bis[(3S)-3-methylmorpholin-4-yl]pyrimidin-2-yl]-2-methoxy-pyridine-4-carboxamide], the IC50 is 4000 nM. The same measure for `COc1ccc(C(=O)Nc2nc(N3CCOC[C@@H]3C)cc(N3CCOC[C@@H]3C)n2)cc1` [Example 1, N-[4,6-Bis[(3S)-3-methylmorpholin-4-yl]pyrimidin-2-yl]-4-methoxy-benzamide]: 4650 nM; for `C[C@H]1COCCN1c1cc(CS(C)(=O)=O)nc(-c2cnc3[nH]ccc3c2)n1` [Example 23, 3-[4-[(3S)-3-Methylmorpholin-4-yl]-6-(methylsulfonylmethyl)pyrimidin-2-yl]-5,7-diazabicyclo[4.3.0]nona-1,3,5,8-tetraene]: 37.7 nM; for `C[C@H]1COCCN1c1cc(CS(C)(=O)=O)nc(-c2ccc3[nH]cc(C(N)=O)c3c2)n1` [Example 33, 5-[4-[(3S)-3-Methylmorpholin-4-yl]-6-(methylsulfonylmethyl)pyrimidin-2-yl]-1H-indole-3-carboxamide]: 154 nM. On to `C[C@H]1COCCN1c1cc(CS(=O)(=O)c2ccccc2)nc(-c2cnc3[nH]ccc3c2)n1` [Example 46, 3-[4-(benzenesulfonylmethyl)-6-[(3S)-3-methylmorpholin-4-yl]pyrimidin-2-yl]-5,7-diazabicyclo[4.3.0]nona-1,3,5,8-tetraene], for which the IC50 was determined as 932 nM. The same measure for `COc1ccc(C(=O)Nc2cc(N3CCOC[C@@H]3C)nc(N3CCOC[C@@H]3C)n2)cc1F` [Example 11, N-[2,6-Bis[(3S)-3-methylmorpholin-4-yl]pyrimidin-4-yl]-3-fluoro-4-methoxy-benzamide]: 3580 nM.

`C[C@H]1COCCN1c1cc(C(C)(C)S(C)(=O)=O)nc(-c2ccc3[nH]ccc3c2)n1` [Example 41, 5-[4-[(3S)-3-methylmorpholin-4-yl]-6-(2-methylsulfonylpropan-2-yl)pyrimidin-2-yl]-1H-indole]: the IC50 was 117 nM.

As to `COc1cc(C(=O)Nc2cc(N3CCOC[C@@H]3C)nc(N3CCOC[C@@H]3C)n2)ccn1` [Example 7, N-[2,6-Bis[(3S)-3-methylmorpholin-4-yl]pyrimidin-4-yl]-2-methoxy-pyridine-4-carboxamide], the IC50 was found to be 2840 nM. The same measure for `C[C@H]1COCCN1c1cc(CS(C)(=O)=O)nc(N2CCOCC2)n1` [Example 22, 4-[(3S)-3-methylmorpholin-4-yl]-6-(methylsulfonylmethyl)-2-morpholin-4-yl-pyrimidine]: 1700 nM; for `COc1ccccc1C(=O)Nc1nc(N2CCOC[C@@H]2C)cc(N2CCOC[C@@H]2C)n1` [Example 14, N-[4,6-Bis[(3S)-3-methylmorpholin-4-yl]pyrimidin-2-yl]-2-methoxy-benzamide]: 886 nM; for `C[C@H]1COCCN1c1cc(CS(=O)(=O)c2ccccc2)nc(-c2ccc3[nH]ccc3c2)n1` [Example 45, 5-[4-(benzenesulfonylmethyl)-6-[(3S)-3-methylmorpholin-4-yl]pyrimidin-2-yl]-1H-indole]: 119 nM. Then `CCS(=O)(=O)Cc1cc(N2CCOC[C@H]2C)nc(-c2ccc3[nH]ccc3c2)n1` [Example 29, 5-[4-(ethylsulfonylmethyl)-6-[(3R)-3-methylmorpholin-4-yl]pyrimidin-2-yl]-1H-indole], with 351 nM; and `C[C@H]1COCCN1c1cc(CS(C)(=O)=O)nc(N2CCCC(O)C2)n1` (stereo partly drawn) [Example 21, 1-[4-[(3S)-3-Methylmorpholin-4-yl]-6-(methylsulfonylmethyl)pyrimidin-2-yl]piperidin-3-ol], with 2300 nM; and `COc1ccc(C(=O)Nc2cc(N3CCOC[C@@H]3C)nc(N3CCOC[C@@H]3C)n2)cc1` [Example 19, N-[2,6-Bis[(3S)-3-methylmorpholin-4-yl]pyrimidin-4-yl]-4-methoxy-benzamide], with 181 nM. `CC(=O)Nc1ccc(C(=O)Nc2cc(N3CCOC[C@@H]3C)nc(N3CCOC[C@@H]3C)n2)cn1` [Example 8, 6-Acetamido-N-[2,6-bis[(3S)-3-methylmorpholin-4-yl]pyrimidin-4-yl]pyridine-3-carboxamide]: the IC50 amounted to 1780 nM. Consider `CC(=O)Nc1ccc(C(=O)Nc2nc(N3CCOC[C@@H]3C)cc(N3CCOC[C@@H]3C)n2)cn1` [Example 13, 6-Acetamido-N-[4,6-bis[(3S)-3-methylmorpholin-4-yl]pyrimidin-2-yl]pyridine-3-carboxamide], for which the IC50 came to 1580 nM. The same measure for `C[C@H]1COCCN1c1cc(C(C)(C)S(C)(=O)=O)nc(-c2ccc3cc[nH]c3c2)n1` [Example 43, 6-[4-[(3S)-3-methylmorpholin-4-yl]-6-(2-methylsulfonylpropan-2-yl)pyrimidin-2-yl]-1H-indole]: 880 nM; for `C[C@@H]1CN(c2nc(CS(C)(=O)=O)cc(N3CCOC[C@@H]3C)n2)C[C@H](C)O1` [Example 20, 2-[(2R,6S)-2,6-Dimethylmorpholin-4-yl]-4-[(3S)-3-methylmorpholin-4-yl]-6-(methylsulfonylmethyl)pyrimidine]: 1650 nM.

The values above are taken from US20100227858A1, “TRISUBSTITUTED PYRIMIDINE DERIVATIVES FOR THE TREATMENT OF PROLIFERATIVE DISEASES” (ASTRAZENECA AB, priority 2007, published 2010).
